Data taken from publication PMC4444023 (PLoS ONE, 2015).
Where “and” joins values, the source holds several entries; their conditions need not be identical. Equal values may be shown once.

Tests used:
human nSMase2 [1] = biological target: T1, human nSMase2 (Homo sapiens, UniProt Q9NY59); test: 14C-SM confirmatory direct activity assay; assay type: biochemical; design: Full length human nSMase2 cDNA with a C-terminal Flag tag; host or cells: HEK293, stably transfected; crude cell lysate used as enzyme; details: for IC50: [14C]-SM direct activity assay, human recombinant enzyme
T1 sequence (Q9NY59 1-655): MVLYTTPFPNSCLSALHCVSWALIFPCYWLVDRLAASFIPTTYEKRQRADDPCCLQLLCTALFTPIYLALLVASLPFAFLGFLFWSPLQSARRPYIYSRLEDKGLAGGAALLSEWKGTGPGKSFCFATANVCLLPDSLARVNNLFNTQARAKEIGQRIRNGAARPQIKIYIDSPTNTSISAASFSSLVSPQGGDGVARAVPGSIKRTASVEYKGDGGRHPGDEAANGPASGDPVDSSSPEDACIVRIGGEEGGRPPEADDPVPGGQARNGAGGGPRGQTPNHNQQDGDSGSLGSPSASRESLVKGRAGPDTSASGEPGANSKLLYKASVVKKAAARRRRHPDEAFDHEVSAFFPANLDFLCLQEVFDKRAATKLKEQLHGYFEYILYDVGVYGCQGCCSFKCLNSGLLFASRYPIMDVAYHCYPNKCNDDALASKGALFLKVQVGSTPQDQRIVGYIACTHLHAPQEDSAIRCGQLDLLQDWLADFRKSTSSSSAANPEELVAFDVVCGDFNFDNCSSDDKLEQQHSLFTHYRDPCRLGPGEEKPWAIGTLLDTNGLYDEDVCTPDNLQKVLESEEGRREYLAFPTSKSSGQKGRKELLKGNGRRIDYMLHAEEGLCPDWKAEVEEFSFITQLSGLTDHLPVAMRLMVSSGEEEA
Procedure: This assay was dependent on the direct hydrolysis of ^14C-labeled SM (^14C N-methyl groups in the phosphorylcholine) by human nSMase2. Optimization of assay conditions was accomplished according to the methods of Barbone et al.. Briefly, bovine [N-methyl-^14C]-sphingomyelin (specific activity […], Perkin Elmer) and phosphatidylinositol (Avanti Polar Lipids) were evaporated to dryness under a stream of nitrogen and resuspended at an equimolar concentration of 0.1 mM in water with 0.5% Triton X-100 (Sigma). The solution was vortexed for 30 min and then sonicated for 30 min. Assay conditions were as follows: 50 μl total volume per reaction, consisting of 20 μM SM, reaction buffer (100 mM Tris-HCl pH 7.5, 80 mM MgCl2, 0.1% Triton X-100); 10 μl cell lysate containing recombinant human nSMase2 (0.5–1 μg protein/assay) and 5 μl of compound in reaction buffer containing 10% DMSO. After 1 h incubation at 37°C the reaction was terminated by the addition of 30 μl of water and 175 μl of chloroform/methanol (2:1, v:v), followed by vigorous vortexing. Tubes were centrifuged for 5 min at 10,000 xg at room temperature to separate the organic bottom phase containing labeled SM and the aqueous upper phase containing ^14C-labeled-phosphorylcholine. An aliquot (50 μl) of the upper phase was transferred to a vial with 10 ml of scintillant and counted for 2 min on a Beckman LS-6000IC scintillation counter. Enzyme activity was directly proportional to the disintegrations per min (dpm) resulting from the generation of ^14C-phosphorylcholine.

[2] = test system: rat primary hippocampal neurons; test: Hippocampal neuronal survival (Hoechst 33342); assay type: cell-based
Procedure: All animal procedures were approved by the Johns Hopkins University Animal Care and Use Committee. Primary hippocampal neurons were prepared from day 18 decapitated embryos of Sprague-Dawley rats following previously described methods. Cells were seeded on polyethyleneimine (PEI)-coated slides in 12-well plates and cultured between 14–21 days. […] After 18 h, cells were stained with 50 μg/ml Hoeschst 33342 for 20 min and then fixed with 4% paraformaldehyde for 30 min. The number of living and apoptotic cells was determined by fluorescence microscopy. A minimum of 500 cells were counted per treatment condition. Results were normalized to control untreated cells and were representative of at least two independent experiments conducted in triplicate. Statistical evaluation of the data was done by Student’s t-test.

[3] = test system: rat primary cortical neurons; test: Lipid extraction and ceramide measurements (LC-MS/MS); assay type: cell-based
Procedure: Primary cortical neurons were prepared from embryonic day 18 Sprague-Dawley rats following previously described methods. […] A crude lipid extract from cortical neurons was obtained using a modified Bligh and Dyer procedure. Ceramide C12:0 (Avanti Polar Lipids) was included as an internal standard. The organic layers were dried in a nitrogen evaporator (Organomation Associates Inc.) and stored at -80°C. Dried organic layers were resuspended in methanol just prior to analysis. The detection and quantitation of individual ceramide species was performed on a high-performance liquid chromatography (HPLC) coupled electrospray ionization triple quadrupole mass spectrometer (API3000, AB Sciex Inc.) using settings similar to those described in previous studies. Samples were handled by a CTC PAL autosampler (LEAP Technologies Inc.) and injected into an HPLC (PerkinElmer) equipped with a reverse phase C18 column (Phenomex). […] The eluted sample was injected into the electrospray ionization source and detection of each ceramide species was conducted by multiple reaction monitoring. Spectral analysis was conducted using MultiQuant (AB Sciex Inc.), individually validated and normalized to the internal standard. Final data for each ceramide species in counts per second was expressed as the ratio of analyte/internal standard.

human nSMase2 [4] = biological target: T1, human nSMase2; test: Fluorescence (Amplex red coupled) nSMase2 activity assay; assay type: biochemical; design: Full length human nSMase2 cDNA with a C-terminal Flag tag; crude cell lysate used as enzyme
Procedure: The production of the latter was coupled to a dephosphorylation reaction catalyzed by alkaline phosphatase (4 U/ml) to produce choline, followed by oxidation of choline by choline oxidase (0.1 U/ml) to produce betaine and H2O2, which in the presence of horseradish peroxidase (HRP, 1U/ml) and 50 μM Amplex red, generates the fluorescent molecule resorufin (Life Technologies). Substrate stock solution was prepared in 2% Triton X-100, vortexed and sonicated for 30 min. Reactions were carried out for 1 h at 37°C in 100 mM Tris-HCl pH 7.4, 10 mM MgCl2, 0.2% Triton X-100 and the generation of the fluorescent product was monitored by measuring relative florescence units (RFU) with excitation at 530 nm and emission at 590 nm (Fig 1). This assay was optimized for 384-well format (50 μl total volume per well) based on linearity of the enzymatic activity with respect to time, as well as substrate and enzyme concentrations. […] This fluorescence assay was used for compound screening and IC50 value determinations, based on duplicate eight-point dose response curves.

[5] = TNF-a: 100 ng/ml TNF-α for 2 min

Cc1ccccc1-c1[nH]c(=S)[nH]c(=O)c1Cc1c(O)ccc2ccccc12 [compound 6]
%Inhibition (human nSMase2 [1]; Log [compound] -4.0): 95.0% and 94.0%
%Inhibition (human nSMase2 [1]; Log [compound] -5.0): 80.0% and 79.0%
%Inhibition (human nSMase2 [1]; Log [compound] -6.0): 22.0% and 21.0%
%Inhibition (human nSMase2 [1]; Log [compound] -7.0): 2.0% and 0.0%
%Inhibition (human nSMase2 [1]; Log [compound] -8.0): -8.0% and -11.0%
%Inhibition (human nSMase2 [1]; Log [compound] -9.0): -1.0% and -3.0%
%Inhibition (human nSMase2 [1]; Log [compound] -10.0): -11.0% and -10.0%
IC50 (human nSMase2 [1]): 3 µM

O=c1[nH]c(=S)[nH]c(-c2ccc(Br)cc2)c1Cc1c(O)ccc2ccccc12 [compound 7]
IC50 (human nSMase2 [1]): 2 ± 1 µM

O=c1[nH]c(=S)[nH]c(-c2cccc(Cl)c2)c1Cc1c(O)ccc2ccccc12 [compound 8]
IC50 (human nSMase2 [1]): 7 ± 1 µM

O=c1[nH]c(=S)[nH]c(-c2ccccc2F)c1Cc1c(O)ccc2ccccc12 [compound 9]
IC50 (human nSMase2 [1]): 6 ± 3 µM

O=P(O)(O)C(O)(Cn1ccnc1)P(=O)(O)O [zoledronic acid, reference compound]
neuron survival, Mean (normalized to control untreated cells) ([2]; 100 ng/ml IL1β 18 h, 10 µM compound): 84.88
neuron survival, Mean (normalized to control untreated cells) ([2]; 100 ng/ml IL1β 18 h, 25 µM compound): 85.75
neuron survival, Mean (normalized to control untreated cells) ([2]; 100 ng/ml TNFα 18 h, 10 µM compound): 80.07
neuron survival, Mean (normalized to control untreated cells) ([2]; 100 ng/ml TNFα 18 h, 25 µM compound): 81.28

TNF-α
Ceramide d18:1/16:0, ratio analyte/internal standard [3, 5]: 2.626 and 2.724 and 1.914 and 2.181 and 2.47 and 2.215
Ceramide d18:1/18:0, ratio analyte/internal standard [3, 5]: 9.562 and 9.737 and 7.685 and 8.892 and 9.601 and 8.529
Ceramide d18:1/20:0, ratio analyte/internal standard [3, 5]: 0.6563 and 0.629 and 0.4932 and 0.6036 and 0.6125 and 0.6685
Ceramide d18:1/22:0, ratio analyte/internal standard [3, 5]: 0.2034 and 0.2174 and 0.1793 and 0.213 and 0.2196 and 0.1978
Ceramide d18:1/24:0, ratio analyte/internal standard [3, 5]: 0.2705 and 0.2427 and 0.2002 and 0.2059 and 0.2011 and 0.2312
Ceramide d18:1/24:1, ratio analyte/internal standard [3, 5]: 0.2934 and 0.2773 and 0.185 and 0.2472 and 0.2529 and 0.2866
Dihexosylceramides d18:1/16:0, ratio analyte/internal standard [3, 5]: 0.0212 and 0.02618 and 0.02908 and 0.01607 and 0.02926 and 0.02318
Dihexosylceramides d18:1/18:0, ratio analyte/internal standard [3, 5]: 0.1307 and 0.1534 and 0.1151 and 0.09786 and 0.1336 and 0.132
Dihydroceramides d18:0/18:0, ratio analyte/internal standard [3, 5]: 0.1552 and 0.1446 and 0.1353 and 0.136 and 0.1435 and 0.1236
Monohexosylceramides d18:1/16:0, ratio analyte/internal standard [3, 5]: 1.65E-01 and 1.78E-01 and 1.43E-01 and 1.25E-01 and 1.46E-01 and 1.28E-01
Monohexosylceramides d18:1/18:0, ratio analyte/internal standard [3, 5]: 8.33E-01 and 9.27E-01 and 8.86E-01 and 8.09E-01 and 8.11E-01 and 9.45E-01
Monohexosylceramides d18:1/20:0, ratio analyte/internal standard [3, 5]: 1.68E-01 and 1.71E-01 and 1.46E-01 and 1.34E-01 and 1.36E-01
Monohexosylceramides d18:1/22:0, ratio analyte/internal standard [3, 5]: 6.26E-02 and 5.07E-02 and 4.08E-02 and 5.38E-02 and 5.08E-02 and 5.16E-02
Monohexosylceramides d18:1/24:0, ratio analyte/internal standard [3, 5]: 4.46E-02 and 4.59E-02 and 3.01E-02 and 3.48E-02 and 3.50E-02 and 3.93E-02
Monohexosylceramides d18:1/24:1, ratio analyte/internal standard [3, 5]: 9.28E-02 and 9.45E-02 and 8.80E-02 and 6.42E-02 and 8.57E-02 and 6.27E-02
effect on long chain ceramide levels ([3]; rat primary cortical neurons): rapid increase

phosphatidylserine
effect on human nSMase2 activity (human nSMase2 [4]; 20 μM SM/PS at equimolar concentration (S5 Fig)): did not significantly affect

sphingomyelin [SM]
enzymatic activity (human nSMase2 [4]; [SM] 3.91 µM): 212.26 RFU
enzymatic activity (human nSMase2 [4]; [SM] 7.81 µM): 311.45 RFU
enzymatic activity (human nSMase2 [4]; [SM] 15.63 µM): 459.12 RFU
enzymatic activity (human nSMase2 [4]; [SM] 31.25 µM): 722.04 RFU
enzymatic activity (human nSMase2 [4]; [SM] 62.50 µM): 1075.56 RFU
enzymatic activity (human nSMase2 [4]; [SM] 125.00 µM): 1331.12 RFU
enzymatic activity (human nSMase2 [4]; [SM] 250.00 µM): 1431.87 RFU
enzymatic activity (human nSMase2 [4]; [SM] 500.00 µM): 1408.02 RFU
